# Assay results: US9086405B2, “Animal stroke model” (UNIVERSITY OF PRINCE EDWARD ISLAND, priority 2010, dated 2015)
# “Also recorded” adds a separate entry of the source.
# Assays:
# male Sprague-Dawley rats [1] = experiment: Suture-induced MCAO (30 minutes) followed by 5.5 hours of reperfusion, infarct volume by TTC staining; format: in vivo, rat; conditions: for infarct size / neuroprotection (infarct volume): 5.5 hours reperfusion; for infarct size: p<0.05, FIG. 7; for neuroprotective effect (infarct volume): vs vehicle, FIG. 9; for neuroprotection (infarct volume): inosine 16 mg/kg after 30 mins of occlusion prior to suture removal
# male Sprague-Dawley rats [2] = experiment: Suture-induced "permanent" (6-hour) MCAO, infarct volume by TTC staining; format: in vivo, rat; conditions: for infarct size: p<0.05, FIG. 6
molecule,measurement,setting,value
estrogen,infarct size,"male Sprague-Dawley rats [1]; estrogen 1×10-2 mg/kg i.v. 30 minutes after MCAO (immediately prior to suture removal), vs saline",significant decrease in infarct size
same,infarct size,"male Sprague-Dawley rats [1]; estrogen 1×10-2 mg/kg i.v. 30 minutes after MCAO (immediately prior to suture removal), vs saline, listed as Estrogen",showed neuroprotective abilities
same,infarct size,"male Sprague-Dawley rats [2]; estrogen 1×10-2 mg/kg i.v. 30 minutes prior to 6 hours of suture induced-MCAO, vs estrogen vehicle (saline)",significant decrease in infarct size; also recorded: significant levels of neuroprotection
Nc1nc2c(ncn2[C@@H]2O[C@H](CO)[C@@H](O)[C@H]2O)c(=O)[nH]1 [guanosine],neuroprotective effect (infarct volume),"male Sprague-Dawley rats [1]; guanosine 16 mg/kg injected 30 minutes (+30) after occlusion, immediately prior to suture removal",greatest benefit; also recorded: most prominent
same,neuroprotective effect (infarct volume),"male Sprague-Dawley rats [1]; guanosine 16 mg/kg injected 60 minutes (+60) from start of MCAO, 30 minutes post-suture removal",significant benefit; also recorded: significant neuroprotection
same,infarct volume,"male Sprague-Dawley rats [1]; guanosine 1, 2, 4, 8 or 16 mg/kg intraperitoneally 30 minutes after MCAO (prior to suture removal), 5.5 h reperfusion, FIG. 8",dose-dependent decrease in infarct volume
same,infarct volume,"male Sprague-Dawley rats [2]; guanosine 1, 2, 4, 8 or 16 mg/kg intraperitoneally 30 minutes prior to ""permanent"" (6-hour) occlusion, FIG. 8",decrease in infarct volume; also recorded: reduced infarct size
OC[C@H]1O[C@@H](n2cnc3c(O)ncnc32)[C@H](O)[C@@H]1O [inosine],neuroprotection (infarct volume),male Sprague-Dawley rats [1]; FIG. 8,No neuroprotection
same,neuroprotection (infarct volume),"male Sprague-Dawley rats [1]; FIG. 8, listed as Inosine",did not cause neuroprotection
CC1=NN(c2ccccc2)C(=O)C1 [edaravone],infarct size,"male Sprague-Dawley rats [1]; edaravone 5, 10 or 20 mg/kg i.v. after 30 minutes of MCAO (immediately prior to suture removal), vs 50% DMSO in saline",significant decreases in infarct size; also recorded: showed neuroprotective abilities
same,infarct size,"male Sprague-Dawley rats [1]; edaravone 5, 10 or 20 mg/kg i.v. after 30 minutes of MCAO (immediately prior to suture removal), vs 50% DMSO in saline, listed as Edaravone",very powerful neuroprotection
same,infarct size,"male Sprague-Dawley rats [2]; edaravone 10, 20 or 40 mg/kg i.v. 30 minutes prior to 6 hours of suture induced-MCAO, vs vehicle 50% DMSO in saline",significant decreases in infarct size; also recorded: significant levels of neuroprotection
